One compound from ChEMBL document CHEMBL1142497, “Emerging protein targets for anticancer metallodrugs: inhibition of thioredoxin reductase and cathepsin B by antitumor ruthenium(II)-arene compounds” (J Med Chem, 2008) can be followed below.

Test [1] deals with T1, Thioredoxin reductase 1, cytoplasmic (Rattus norvegicus, UniProt O89049).
T1 sequence (O89049 whole entry): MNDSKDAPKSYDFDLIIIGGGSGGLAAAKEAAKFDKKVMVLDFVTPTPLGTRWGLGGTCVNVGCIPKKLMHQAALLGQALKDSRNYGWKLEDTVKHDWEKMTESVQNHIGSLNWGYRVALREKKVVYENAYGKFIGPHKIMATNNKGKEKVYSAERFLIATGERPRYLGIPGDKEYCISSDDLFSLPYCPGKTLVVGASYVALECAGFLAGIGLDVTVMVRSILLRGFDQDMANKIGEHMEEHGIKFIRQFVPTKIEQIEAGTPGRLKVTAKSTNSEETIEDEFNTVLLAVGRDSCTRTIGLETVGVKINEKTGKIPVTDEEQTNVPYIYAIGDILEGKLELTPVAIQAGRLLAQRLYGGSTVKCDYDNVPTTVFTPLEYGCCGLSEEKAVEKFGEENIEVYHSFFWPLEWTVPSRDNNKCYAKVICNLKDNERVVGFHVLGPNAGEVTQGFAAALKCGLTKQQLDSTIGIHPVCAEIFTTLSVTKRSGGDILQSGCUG

Test [2] deals with Thioredoxin reductase 2, mitochondrial (Rattus norvegicus, UniProt Q9Z0J5).
Chain of Thioredoxin reductase 2, mitochondrial (Q9Z0J5 whole entry): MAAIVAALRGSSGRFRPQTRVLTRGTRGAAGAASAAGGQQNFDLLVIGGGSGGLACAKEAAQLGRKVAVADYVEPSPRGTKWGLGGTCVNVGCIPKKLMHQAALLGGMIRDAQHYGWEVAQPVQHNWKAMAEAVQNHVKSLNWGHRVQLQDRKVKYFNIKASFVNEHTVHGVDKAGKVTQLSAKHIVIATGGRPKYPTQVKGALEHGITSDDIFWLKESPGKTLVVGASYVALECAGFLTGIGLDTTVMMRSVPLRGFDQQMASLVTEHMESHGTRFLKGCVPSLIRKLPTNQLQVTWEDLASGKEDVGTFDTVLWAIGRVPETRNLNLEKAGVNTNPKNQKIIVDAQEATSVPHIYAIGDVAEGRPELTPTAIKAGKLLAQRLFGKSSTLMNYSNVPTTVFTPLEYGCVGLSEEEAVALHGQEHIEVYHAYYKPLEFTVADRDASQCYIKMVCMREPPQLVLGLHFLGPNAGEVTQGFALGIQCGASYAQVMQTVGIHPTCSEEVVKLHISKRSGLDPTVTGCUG

In general, IC50 refers to the point on the concentration scale where inhibition reaches its midpoint. On to `O=C(O)C1(C(=O)O)CCC1`, for which the concentration for half-maximal inhibition (IC50) in test [1] and in test [2] was over 200 µM each time.
